Reference: patent US5578477A, “Identification and characterization of inhibtors of protein farnesyltransferase” (Arch Development Corporation, priority 1993, dated 1996)
Blank lines part the entries; values can stand above or below the molecule they belong to. Peptide text beside a SMILES is read from it.

How the values were obtained:
yeast FTase = molecular target: T1, yeast FTase (Saccharomyces cerevisiae, UniProt P22007+P29703); assay: Prenyltransferase (FTase) assay with [3H]Fpp and GST-CIIS, purified yeast FTase; assay type: biochemical; settings: for inhibition of FTase activity by salts: 100 mM salt
T1 construct: FTase was purified from SP1 cells carrying plasmids pBH28 and YEpDPR1 as described herein; made in house; host or cells: Saccharomyces cerevisiae SP1 carrying YEpDPR1 and pBH28
T1 sequence (P22007 1-431): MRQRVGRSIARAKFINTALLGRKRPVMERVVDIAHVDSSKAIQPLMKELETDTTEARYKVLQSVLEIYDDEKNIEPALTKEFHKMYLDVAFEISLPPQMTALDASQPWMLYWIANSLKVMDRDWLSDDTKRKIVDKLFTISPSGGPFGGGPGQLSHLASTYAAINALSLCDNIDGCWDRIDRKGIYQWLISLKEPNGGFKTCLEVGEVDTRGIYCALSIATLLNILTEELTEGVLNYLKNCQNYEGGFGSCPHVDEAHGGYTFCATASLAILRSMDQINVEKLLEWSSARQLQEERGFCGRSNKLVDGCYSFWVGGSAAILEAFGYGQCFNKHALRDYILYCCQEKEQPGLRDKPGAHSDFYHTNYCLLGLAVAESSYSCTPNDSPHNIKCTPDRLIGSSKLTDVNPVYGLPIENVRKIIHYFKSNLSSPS
T1 sequence (P29703 1-316): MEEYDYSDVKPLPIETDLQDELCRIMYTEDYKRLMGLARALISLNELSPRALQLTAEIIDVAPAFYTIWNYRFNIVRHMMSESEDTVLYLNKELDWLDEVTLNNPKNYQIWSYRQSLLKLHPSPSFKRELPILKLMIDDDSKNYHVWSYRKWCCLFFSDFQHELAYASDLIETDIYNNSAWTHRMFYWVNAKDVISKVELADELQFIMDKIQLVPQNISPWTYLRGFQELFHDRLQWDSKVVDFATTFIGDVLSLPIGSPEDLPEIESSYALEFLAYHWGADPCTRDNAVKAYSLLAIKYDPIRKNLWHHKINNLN
Description: Prenyltransferase assays were performed essentially as described in Goodman et al., 1990; Finegold et al., 1991. Briefly, the reaction mixture (20 μl) contained 50 mM potassium phosphate, pH 7.4 (or 50 mM Tris/HCl, pH 8.0), 10 mMMgCl2, 5 mM DTT, 5 μM ZnCl2, 0.8-1.12 μM [^3 H] farnesyl pyrophosphate (Fpp) (20 Ci/mmol; New England Nuclear) or [^3 H] geranylgeranyl pyrophosphate (GGpp) (20 Ci/mmol; New England Nuclear, Boston, Mass.), 19 μg of GST-CIIS or 30 μg of GST-CIIL protein and enzymes. Incubation was carried out at 37° C., and the radioactivity incorporated was determined by spotting the reaction mixture onto a filter paper, treating with 10% trichloroacetic acid, followed by ethanol and acetone washing.
Reaction mixture (20 μl) for results shown in open squares contained 1.12 μM [^3 H] Fpp, 4.38 ng FTase, 19 μM GST-CIIS, 0.1 mM EDTA and the indicated concentration of MgCl2. Reaction mixtures (20 μl) for results shown in closed diamond contained 0.1 mM ZnCl2 in addition to the above. Incubation was carried out for 10 minutes at 37° C. and radioactivity incorporated was determined as described herein.
Substrate specificity of yeast FTase was investigated by comparing incorporation of Fpp or GGpp into two different substrate proteins, GST-CIIS (.quadrature.) and GST-CIIL (.circle-solid.). […] The reaction mixture (20 μl) contained 1.12 μM [^3 H] Fpp, 20 ng FTase, and the indicated concentrations of either GST-CIIS or GST-CIIL1 protein. Incubations were carried out for 10 minutes at 37° C. and the radioactivity incorporated was measured as described herein.
Dilution of the peptides was made in 10 mM DTT. Incubation was carried out for 10 minutes at 37° C. and the radioactivity incorporated was determined as described herein.

PGGT I = molecular target: T2, PGGT I (Bos taurus, UniProt P29702+Q5EAD5); assay: PGGT assay using GST-CIIL protein and [3H]GGpp; assay type: biochemical, bovine
T2 construct: PGGT purified from bovine brain was a gift of Drs; M. Gelb and K. Yokoyama; tissue gift of Drs; M. Gelb and K. Yokoyama (Univ. of Washington); host or cells: bovine brain
Description: (§1) Farnesyltransferase assay. FTase from S. cerevisiae was purified from yeast cells overexpressing DPR1 and RAM2 as described herein. Rat brain FTase was partially purified by the method described by Reiss et al. PGGT purified from bovine brain was a gift of Drs. M. Gelb and K. Yokoyama (Univ. of Washington). FTase assays were carried out using RAS2CT1 protein and [^3 H]Fpp according to the method described herein except that Tris-HCl(pH8) was used instead of phosphate buffer. PGGT assays were carried out using GST-CIIL protein and [^3 H]GGpp as described herein except that Tris-HCl(pH7.4) was used instead of phosphate buffer. […] Incubation was carried out at 37° C.
FIG. 6B compares the effect of UCF1-C on PGGT I and PFT.

yeast PFT = molecular target: T3, yeast PFT (Saccharomyces cerevisiae, UniProt P22007+P29703); assay: Farnesyltransferase assay using RAS2CT1 protein and [3H]Fpp, without dithiothreitol; assay type: biochemical, S. cerevisiae
T3 construct: FTase was purified from SP1 cells carrying plasmids pBH28 and YEpDPR1 as described herein; made in house; host or cells: Saccharomyces cerevisiae SP1 carrying YEpDPR1 and pBH28
T3 sequence (P22007 1-431): T1 sequence (P22007 1-431)
T3 sequence (P29703 1-316): T1 sequence (P29703 1-316)
Description: as §1
Inhibition of Farnesyltransferase.
To investigate the mechanism of inhibition by UCF1-C, kinetic analyses were carried out. […] The same Km value was observed when the Linewaver-Burke plot was analyzed under different ras and UCF1-C concentrations (.quadrature.=0 μM, .tangle-solidup.=10 μM, and .box-solid.=20 μM) in the presence of a constant concentration of Fpp.

Molecule: O=C(O)CN(CCN(CC(=O)O)CC(=O)O)CC(=O)O [EDTA]
effect of EDTA addition on FTase activity (yeast FTase): dramatic inhibition

Molecule: CC(C)=CCC/C(C)=C/CC/C(C)=C/COP(=O)(O)OP(=O)(O)O [Fpp, farnesyl pyrophosphate]
Km (yeast FTase; secondary plots, substrates Fpp and GST-CIIS varied): 8.1 µM

Molecule: [Cl-].[K+] [KCl]
inhibition of FTase activity by salts (yeast FTase): Approximately 50%

Molecule: [Cl-].[Li+] [LiCl]
inhibition of FTase activity by salts (yeast FTase): Approximately 50%

IC50 (yeast FTase): 10 µM
Molecule: CSCC[C@H](NC(=O)[C@H](CC(C)C)NC(=O)[C@@H](NC(=O)[C@H](CS)NC(=O)[C@H](CS)NC(=O)[C@@H](NC(=O)[C@H](CO)NC(=O)[C@H](CC(N)=O)NC(=O)[C@H](CO)NC(=O)[C@@H](N)CC(N)=O)C(C)C)[C@@H](C)O)C(=O)O [MG13, NSNSVCCTLM] (H-NSNSVCCTLM-OH)

Molecule: [Cl-].[Na+] [NaCl]
inhibition of FTase activity by salts (yeast FTase): Approximately 50%

PGGT I activity still detectable (PGGT I; 1 mM concentration): approximately 30%
IC50 (PGGT I; GST-CIIL, [3H]GGpp, Tris-HCl pH 7.4, read-out: IC50 for PGGT I inhibition): 180 µM
mechanism of inhibition with respect to Fpp (yeast PFT; Lineweaver-Burk, changes Km for Fpp, not Vmax): competitive inhibitor
mechanism of inhibition with respect to ras protein (yeast PFT; Lineweaver-Burk, same Km for RAS2, constant Fpp): non-competitive inhibitor
IC50 (yeast PFT; RAS2CT1, [3H]Fpp, Tris-HCl pH 8, no dithiothreitol, 37° C.): 5 µM
Ki (yeast PFT; secondary plot of slopes against UCF1-C concentration, Fpp varied, constant ras): 1.2 µM
Molecule: CCCC[C@@H](C)/C=C(C)/C=C(\C)C(=O)NC1=C[C@@](O)(/C=C/C=C/C=C/C(=O)NC2=C(O)CCC2=O)[C@@H]2O[C@@H]2C1=O [UCF1-C]

Molecule: EHWSYGLRPG [LHRH]
inhibition of FTase activity by peptide (in words) (yeast FTase; control peptides of the same size, unrelated sequences): little inhibition
